Test results published in ChEMBL document CHEMBL3611990, “Identification of Purines and 7-Deazapurines as Potent and Selective Type I Inhibitors of Troponin I-Interacting Kinase (TNNI3K)” (J Med Chem, 2015).
Converted amounts (≈) assume the structure as drawn.

Key:
[1] = molecular target: T1, Serine/threonine-protein kinase TNNI3K (Homo sapiens, UniProt Q59H18); assay: Displacement of 5-({[2-({[3-({4-[(5-hydroxy-2-methylphenyl)amino]-2-pyrimidinyl}amino)phenyl]carbonyl}amino)-ethyl]amino}carbonyl)-2-(6-hydroxy-3-oxo-3H-xanthen-9-yl)benzoic acid from His6-MBP-TEV-full length human TNNI3K expressed in Baculovirus expression system after 60 mins by fluorescence polarization assay
T1 sequence (Q59H18 whole entry): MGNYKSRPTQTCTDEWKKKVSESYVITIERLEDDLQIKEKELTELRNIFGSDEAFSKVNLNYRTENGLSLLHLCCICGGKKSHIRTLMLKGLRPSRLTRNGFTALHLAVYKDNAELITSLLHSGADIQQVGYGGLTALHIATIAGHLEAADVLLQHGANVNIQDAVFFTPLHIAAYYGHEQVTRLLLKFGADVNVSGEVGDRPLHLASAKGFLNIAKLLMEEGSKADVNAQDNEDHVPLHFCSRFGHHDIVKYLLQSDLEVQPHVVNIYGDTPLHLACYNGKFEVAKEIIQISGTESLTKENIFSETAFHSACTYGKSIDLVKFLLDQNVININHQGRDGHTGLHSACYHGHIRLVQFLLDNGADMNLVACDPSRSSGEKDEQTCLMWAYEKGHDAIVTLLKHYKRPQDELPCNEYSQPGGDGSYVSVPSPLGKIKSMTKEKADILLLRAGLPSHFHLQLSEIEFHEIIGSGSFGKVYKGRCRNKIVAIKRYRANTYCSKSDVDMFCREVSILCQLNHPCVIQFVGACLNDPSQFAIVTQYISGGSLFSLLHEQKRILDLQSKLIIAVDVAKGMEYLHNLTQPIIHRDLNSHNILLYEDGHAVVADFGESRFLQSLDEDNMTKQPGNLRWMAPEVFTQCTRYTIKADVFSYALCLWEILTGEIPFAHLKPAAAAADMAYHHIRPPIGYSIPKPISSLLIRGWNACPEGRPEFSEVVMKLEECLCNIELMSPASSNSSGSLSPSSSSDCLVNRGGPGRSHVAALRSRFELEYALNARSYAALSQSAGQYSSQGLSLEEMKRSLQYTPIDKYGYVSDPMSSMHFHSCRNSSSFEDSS

[2] = molecular target: Serine/threonine-protein kinase B-raf (Homo sapiens, UniProt P15056, V600E); assay: Inhibition of His6-tagged full length BRAF V600E mutant (2 to 766 residues) (unknown origin) expressed in Baculovirus expression system by BRAMA method
Sequence of Serine/threonine-protein kinase B-raf (P15056 2-766 V600E limits assumed): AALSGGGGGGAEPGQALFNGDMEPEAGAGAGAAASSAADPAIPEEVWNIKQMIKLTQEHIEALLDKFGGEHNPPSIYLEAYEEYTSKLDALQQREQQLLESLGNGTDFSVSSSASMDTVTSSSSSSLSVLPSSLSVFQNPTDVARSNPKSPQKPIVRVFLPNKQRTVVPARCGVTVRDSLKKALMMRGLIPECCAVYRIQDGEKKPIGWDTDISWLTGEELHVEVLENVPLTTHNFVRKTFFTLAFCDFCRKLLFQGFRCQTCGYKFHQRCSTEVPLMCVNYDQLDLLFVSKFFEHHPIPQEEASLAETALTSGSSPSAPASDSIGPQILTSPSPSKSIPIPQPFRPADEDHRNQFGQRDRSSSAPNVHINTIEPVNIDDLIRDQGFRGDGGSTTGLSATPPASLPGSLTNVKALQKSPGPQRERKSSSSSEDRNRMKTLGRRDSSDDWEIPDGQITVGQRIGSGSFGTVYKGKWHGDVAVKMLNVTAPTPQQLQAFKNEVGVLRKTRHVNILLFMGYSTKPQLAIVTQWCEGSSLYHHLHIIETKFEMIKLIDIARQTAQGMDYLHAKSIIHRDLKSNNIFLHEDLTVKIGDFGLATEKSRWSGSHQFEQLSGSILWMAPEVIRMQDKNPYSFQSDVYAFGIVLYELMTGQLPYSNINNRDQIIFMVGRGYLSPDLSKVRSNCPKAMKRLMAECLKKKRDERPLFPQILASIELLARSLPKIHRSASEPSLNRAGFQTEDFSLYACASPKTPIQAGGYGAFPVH

[3] = molecular target: T1, Serine/threonine-protein kinase TNNI3K; assay: Binding affinity to TNNI3K (unknown origin)
[4] = system: Rattus norvegicus; assay: Dose normalized AUC in po dosed Sprague-Dawley rat by LC/MS/MS analysis; assay type: ADME, organism-based; conditions: in vivo
[5] = Plasma clearance in Sprague-Dawley rat at 1 mg/kg, iv by LC/MS/MS analysis; assay type: ADME, organism-based
[6] = Oral bioavailability in Sprague-Dawley rat by LC/MS/MS analysis; assay type: ADME, organism-based; conditions: in vivo
[7] = Aqueous solubility of the compound; assay type: physicochemical
[8] = Volume of distribution at steady state in Sprague-Dawley rat by LC/MS/MS analysis; assay type: ADME, organism-based; conditions: in vivo, read-out: Vdss
[9] = molecular target: T1, Serine/threonine-protein kinase TNNI3K; assay: Inhibition of human myc-tagged TNNI3K autophosphorylation overexpressed in HEKMSRII cells preincubated for 30 mins followed by pervanadate solution addition measured after 20 mins by DELFIA; assay type: cell-based

Row | Compound | IC50 [1] | IC50 [2] | AUC/dose [4] | also measured
1 | CNS(=O)(=O)c1cccc(Nc2ncnc3[nH]c(C(=O)O)cc23)c1 | 160 nM | 40 nM | – | –
2 | CNS(=O)(=O)c1cccc(Nc2ncnc3[nH]cnc23)c1 | 500 nM | 32 nM | 0 kg·h/L | Kd [3]: 111 nM
3 | CNS(=O)(=O)c1cccc(Nc2nc(F)nc3[nH]cnc23)c1 | 3200 nM | – | – | –
4 | CNS(=O)(=O)c1cccc(Nc2ncnc3c2ncn3C)c1 | > 25000 nM | – | – | –
5 | CNS(=O)(=O)c1cccc(Nc2nc(N)nc3[nH]cnc23)c1 | 8000 nM | – | – | –
6 | CNS(=O)(=O)c1cccc(Nc2nc(Cl)nc3[nH]cnc23)c1 | 16000 nM | – | – | –
7 | CNS(=O)(=O)c1cccc(Nc2ncnc3[nH]ncc23)c1 | 50 nM | – | – | clearance [5]: 72 mL/min/kg; bioavailability [6]: 5%
8 | CNS(=O)(=O)c1cccc(Nc2ncnc3[nH]ccc23)c1 | 80 nM | 50 nM | 0.08 kg·h/L | clearance [5]: 68 mL/min/kg; bioavailability [6]: 34%; solubility [7]: 50 µM (≈ 15.2 µg/mL); Vd [8]: 1.4 L/kg
9 | CNS(=O)(=O)c1cccc(Nc2ncnc3c2ccn3C)c1 | > 25000 nM | – | – | –
10 | CNS(=O)(=O)c1cccc(Nc2ccnc3[nH]ccc23)c1 | 8000 nM | – | – | –
11 | CNS(=O)(=O)c1cccc(Nc2ncnc3c2CC(=O)N3)c1 | 400 nM | – | – | –
12 | CCNS(=O)(=O)c1cccc(Nc2ncnc3[nH]cnc23)c1 | 2000 nM | – | – | –
13 | NS(=O)(=O)c1cccc(Nc2ncnc3[nH]cnc23)c1 | 40000 nM | – | – | –
14 | O=S(=O)(NO)c1cccc(Nc2ncnc3[nH]cnc23)c1 | 20000 nM | – | – | –
15 | CN(C)S(=O)(=O)c1cccc(Nc2ncnc3[nH]cnc23)c1 | 8000 nM | – | – | –
16 | CCS(=O)(=O)c1cccc(Nc2ncnc3[nH]cnc23)c1 | 6300 nM | – | – | –
17 | CNS(=O)(=O)c1cc(Nc2ncnc3[nH]cnc23)ccc1C | 13000 nM | – | – | –
18 | CNS(=O)(=O)c1ccc(C)c(Nc2ncnc3[nH]cnc23)c1 | 500 nM | – | – | –
19 | CNS(=O)(=O)c1cccc(N(C)c2ncnc3[nH]ccc23)c1 | 5000 nM | – | – | –

Row | Compound | IC50 [1] | IC50 [2] | AUC/dose [4] | also measured
20 | CNS(=O)(=O)c1cccc(Oc2ncnc3[nH]ccc23)c1 | 16000 nM | – | – | –
21 | CNS(=O)(=O)c1cncc(Nc2ncnc3[nH]ccc23)c1 | 250 nM | – | – | –
22 | CNS(=O)(=O)c1cccc(Nc2ncnc3[nH]cc(C)c23)c1 | 40 nM | 63 nM | 0.18 kg·h/L | –
23 | CNS(=O)(=O)c1cccc(Nc2ncnc3[nH]cc(C(C)C)c23)c1 | 126 nM | 79 nM | 0.06 kg·h/L | –
24 | CNS(=O)(=O)c1cccc(Nc2ncnc3[nH]cc(CC(C)C)c23)c1 | 126 nM | 40 nM | – | –
25 | CNS(=O)(=O)c1cccc(Nc2ncnc3[nH]cc(F)c23)c1 | 126 nM | 79 nM | 0.28 kg·h/L | –
26 | CNS(=O)(=O)c1cccc(Nc2ncnc3[nH]cc(Cl)c23)c1 | 32 nM | 13 nM | 0.39 kg·h/L | clearance [5]: 20 mL/min/kg; Vd [8]: 0.45 L/kg
27 | CNS(=O)(=O)c1cccc(Nc2ncnc3[nH]cc(Br)c23)c1 | 32 nM | 5 nM | 0.55 kg·h/L | clearance [5]: 23 mL/min/kg; Vd [8]: 0.63 L/kg
28 | CNS(=O)(=O)c1cccc(Nc2ncnc3[nH]cc(-c4ccccc4)c23)c1 | 40 nM | 4 nM | 0.05 kg·h/L | clearance [5]: 93 mL/min/kg
29 | CNS(=O)(=O)c1cccc(Nc2ncnc3[nH]cc(-c4ccccc4Cl)c23)c1 | 40 nM | 10 nM | – | –
30 | CNS(=O)(=O)c1cccc(Nc2ncnc3[nH]cc(-c4cccc(Cl)c4)c23)c1 | 63 nM | 1 nM | – | –
31 | CNS(=O)(=O)c1cccc(Nc2ncnc3[nH]cc(-c4ccc(Cl)cc4)c23)c1 | 100 nM | 4 nM | 0.2 kg·h/L | clearance [5]: 65 mL/min/kg
32 | CNS(=O)(=O)c1cccc(Nc2ncnc3[nH]cc(-c4ccc(OC)cc4)c23)c1 | 50 nM | 4 nM | 0.06 kg·h/L | –
33 | CNS(=O)(=O)c1cccc(Nc2ncnc3[nH]cc(-c4ccncc4)c23)c1 | 100 nM | 32 nM | 0 kg·h/L | –
34 | CNS(=O)(=O)c1cccc(Nc2ncnc3[nH]cc(-c4ccc(CN)cc4)c23)c1 | 32 nM | 6 nM | 0 kg·h/L | –
35 | CNS(=O)(=O)c1cccc(Nc2ncnc3[nH]cc(-c4ccc(C(=O)O)cc4)c23)c1 | 100 nM | 16 nM | 0 kg·h/L | –
36 | CNS(=O)(=O)c1cccc(Nc2ncnc3[nH]c(Br)cc23)c1 | 50 nM | 16 nM | 0.26 kg·h/L | –
37 | CNS(=O)(=O)c1cccc(Nc2ncnc3[nH]c(-c4ccccc4)cc23)c1 | 25 nM | 1 nM | 0.01 kg·h/L | –
38 | CNS(=O)(=O)c1cccc(Nc2ncnc3[nH]c(-c4ccccc4C)cc23)c1 | 13 nM | 6 nM | – | –

Row | Compound | IC50 [1] | IC50 [2] | AUC/dose [4] | also measured
39 | CNS(=O)(=O)c1cccc(Nc2ncnc3[nH]c(-c4cccc(C)c4)cc23)c1 | 13 nM | 1 nM | 0.01 kg·h/L | –
40 | CNS(=O)(=O)c1cccc(Nc2ncnc3[nH]c(-c4ccc(C)cc4)cc23)c1 | 13 nM | 1 nM | – | –
41 | CNS(=O)(=O)c1cccc(Nc2ncnc3[nH]c(-c4cccc(C(F)(F)F)c4)cc23)c1 | 63 nM | 6 nM | 0.14 kg·h/L | –
42 | CNS(=O)(=O)c1cccc(Nc2ncnc3[nH]c(-c4ccc(O)cc4)cc23)c1 | 13 nM | 1 nM | – | –
43 | CNS(=O)(=O)c1cccc(Nc2ncnc3[nH]c(-c4ccncc4)cc23)c1 | 20 nM | 1 nM | 0 kg·h/L | –
44 | CNS(=O)(=O)c1cccc(Nc2ncnc3[nH]c4ccccc4c23)c1 | 100 nM | 40 nM | 0.03 kg·h/L | –
45 | CNS(=O)(=O)c1ccc(C)c(Nc2ncnc3[nH]ccc23)c1 | 630 nM | – | – | –
46 | CNS(=O)(=O)c1ccc(Cl)c(Nc2ncnc3[nH]ccc23)c1 | 20 nM | 32 nM | – | –
47 | CNc1ccc(S(=O)(=O)NC)cc1Nc1ncnc2[nH]ccc12 | 6300 nM | 1000 nM | – | –
48 | CNS(=O)(=O)c1ccc(N(C)C)c(Nc2ncnc3[nH]ccc23)c1 | 50 nM | 6 nM | 0.59 kg·h/L | clearance [5]: 30 mL/min/kg; bioavailability [6]: 100%; solubility [7]: 330 µM (≈ 114 µg/mL); IC50 [9]: 50 nM
49 | CNS(=O)(=O)c1ccc(N2CCOCC2)c(Nc2ncnc3[nH]ccc23)c1 | 40 nM | 8 nM | 0.15 kg·h/L | clearance [5]: 39 mL/min/kg; IC50 [9]: 100 nM
50 | CNS(=O)(=O)c1ccc(N(C)C)c(Nc2ncnc3[nH]cc(C)c23)c1 | < 10 nM | 0.5 nM | – | IC50 [9]: 1.6 nM
51 | CNS(=O)(=O)c1ccc(N(C)C)c(Nc2ncnc3[nH]cc(Br)c23)c1 | < 10 nM | 0.2 nM | 0.04 kg·h/L | IC50 [9]: 0.7 nM
52 | CNS(=O)(=O)c1ccc(N2CCOCC2)c(Nc2ncnc3[nH]cc(C)c23)c1 | 13 nM | 1.3 nM | – | IC50 [9]: 7.9 nM
53 | CNS(=O)(=O)c1ccc(N2CCOCC2)c(Nc2ncnc3[nH]cc(Br)c23)c1 | < 10 nM | 0.5 nM | 0.32 kg·h/L | IC50 [9]: 6.3 nM
54 | CNS(=O)(=O)c1ccc(N(C)C)c(Nc2ncnc3[nH]c(Br)cc23)c1 | 40 nM | 6.3 nM | 0.14 kg·h/L | IC50 [9]: 40 nM
55 | CNS(=O)(=O)c1ccc(N(C)C)c(Nc2ncnc3[nH]c(-c4cccc(C(F)(F)F)c4)cc23)c1 | 13 nM | 0.6 nM | – | IC50 [9]: 16 nM
56 | CNS(=O)(=O)c1ccc(N2CCOCC2)c(Nc2ncnc3[nH]c(Br)cc23)c1 | 126 nM | 8 nM | 0.09 kg·h/L | IC50 [9]: 398 nM
57 | CNS(=O)(=O)c1ccc(N2CCOCC2)c(Nc2ncnc3[nH]c(-c4cccc(C(F)(F)F)c4)cc23)c1 | 16 nM | 1.3 nM | – | IC50 [9]: 10 nM
